ChEMBL document CHEMBL1143487, “Solid support synthesis of 6-aryl-2-substituted pyrimidin-4-yl phenols as anti-infective agents” (2005)
≈ marks a conversion by molar mass, not a printed value. Calls of active or inactive are those of the source. No cut-off for these calls is given here.

Columns and labels:
[1] = system: Mycobacterium tuberculosis; experiment: Minimum inhibitory concentration against Mycobacterium tuberculosis; - = inactive; assay type: functional, organism-based
Plasmodium falciparum = experiment: Minimum inhibitory concentration against Plasmodium falciparum; assay type: functional
[2] = system: Mycobacterium tuberculosis; experiment: Minimum inhibitory concentration against Mycobacterium tuberculosis; assay type: functional

Cc1ccc(-c2cc(-c3ccc(O)cc3)nc(N3CCCC3)n2)cc1
MIC [1]: inactive | MIC (Plasmodium falciparum): 2 µg/mL (≈ 6.03 µM)

Cc1ccc(-c2cc(-c3ccc(O)cc3)nc(N3CCN(c4ccccc4)CC3)n2)cc1
MIC [1]: inactive | MIC (Plasmodium falciparum): 10 µg/mL (≈ 23.7 µM)

COc1ccc(-c2cc(-c3ccc(O)cc3)nc(N3CCN(Cc4ccccc4)CC3)n2)cc1
MIC [1]: inactive | MIC (Plasmodium falciparum): 1 µg/mL (≈ 2.21 µM)

COc1ccc(-c2cc(-c3ccc(O)cc3)nc(N)n2)cc1OC
MIC [2]: 12.5 µg/mL (≈ 38.7 µM) | MIC (Plasmodium falciparum): 10 µg/mL (≈ 30.9 µM)

COc1ccc(-c2cc(-c3ccc(O)cc3)nc(N3CCCCC3)n2)cc1OC
MIC [2]: 25 µg/mL (≈ 63.9 µM) | MIC (Plasmodium falciparum): 1 µg/mL (≈ 2.55 µM)

COc1ccc(OC)c(-c2cc(-c3ccc(O)cc3)nc(N3CCN(C)CC3)n2)c1
MIC [2]: 12.5 µg/mL (≈ 30.8 µM) | MIC (Plasmodium falciparum): 0.25 µg/mL (≈ 0.615 µM)

Nc1nc(-c2ccccc2)cc(-c2ccc(O)cc2)n1
MIC [1]: inactive | MIC (Plasmodium falciparum): 10 µg/mL (≈ 38 µM)

Cc1ccc(-c2cc(-c3ccc(O)cc3)nc(N)n2)cc1
MIC [1]: inactive | MIC (Plasmodium falciparum): 50 µg/mL (≈ 180 µM)

COc1ccc(-c2cc(-c3ccc(O)cc3)nc(N3CCN(c4ccccc4)CC3)n2)cc1OC
MIC [1]: inactive | MIC (Plasmodium falciparum): 1 µg/mL (≈ 2.13 µM)

COc1ccc(OC)c(-c2cc(-c3ccc(O)cc3)nc(N3CCCC3)n2)c1
MIC [2]: 25 µg/mL (≈ 66.2 µM) | MIC (Plasmodium falciparum): 1 µg/mL (≈ 2.65 µM)

Cc1ccc(-c2cc(-c3ccc(O)cc3)nc(N3CCN(C)CC3)n2)cc1
MIC [2]: 25 µg/mL (≈ 69.4 µM) | MIC (Plasmodium falciparum): 1 µg/mL (≈ 2.77 µM)

COc1ccc(OC)c(-c2cc(-c3ccc(O)cc3)nc(N3CCCCC3)n2)c1
MIC [2]: 25 µg/mL (≈ 63.9 µM) | MIC (Plasmodium falciparum): 1 µg/mL (≈ 2.55 µM)

Cc1ccc(-c2cc(-c3ccc(O)cc3)nc(N3CCCCC3)n2)cc1
MIC [1]: inactive | MIC (Plasmodium falciparum): 2 µg/mL (≈ 5.79 µM)

COc1ccc(OC)c(-c2cc(-c3ccc(O)cc3)nc(N3CCN(Cc4ccccc4)CC3)n2)c1
MIC [2]: 25 µg/mL (≈ 51.8 µM) | MIC (Plasmodium falciparum): 0.25 µg/mL (≈ 0.518 µM)

COc1ccc(OC)c(-c2cc(-c3ccc(O)cc3)nc(N3CCN(c4ccccc4)CC3)n2)c1
MIC [1]: inactive | MIC (Plasmodium falciparum): 2 µg/mL (≈ 4.27 µM)

COc1ccc(-c2cc(-c3ccc(O)cc3)nc(N3CCN(Cc4ccccc4)CC3)n2)cc1OC
MIC [1]: inactive | MIC (Plasmodium falciparum): 0.5 µg/mL (≈ 1.04 µM)

COc1ccc(-c2cc(-c3ccc(O)cc3)nc(N)n2)cc1
MIC [1]: inactive | MIC (Plasmodium falciparum): 50 µg/mL (≈ 170 µM)

Oc1ccc(-c2cc(-c3ccccc3)nc(N3CCN(Cc4ccccc4)CC3)n2)cc1
MIC [2]: 25 µg/mL (≈ 59.2 µM) | MIC (Plasmodium falciparum): 1 µg/mL (≈ 2.37 µM)

COc1ccc(-c2cc(-c3ccc(O)cc3)nc(N3CCN(c4ccccc4)CC3)n2)cc1
MIC [1]: inactive | MIC (Plasmodium falciparum): 2 µg/mL (≈ 4.56 µM)

COc1ccc(-c2cc(-c3ccc(O)cc3)nc(N3CCCC3)n2)cc1
MIC [1]: inactive | MIC (Plasmodium falciparum): 1 µg/mL (≈ 2.88 µM)

COc1ccc(OC)c(-c2cc(-c3ccc(O)cc3)nc(N)n2)c1
MIC [2]: 25 µg/mL (≈ 77.3 µM) | MIC (Plasmodium falciparum): 10 µg/mL (≈ 30.9 µM)

Oc1ccc(-c2cc(-c3ccccc3)nc(N3CCN(c4ccccc4)CC3)n2)cc1
MIC [2]: 25 µg/mL (≈ 61.2 µM) | MIC (Plasmodium falciparum): 10 µg/mL (≈ 24.5 µM)

COc1ccc(-c2cc(-c3ccc(O)cc3)nc(N3CCN(C)CC3)n2)cc1OC
MIC [2]: 12.5 µg/mL (≈ 30.8 µM) | MIC (Plasmodium falciparum): 0.25 µg/mL (≈ 0.615 µM)

Cc1ccc(-c2cc(-c3ccc(O)cc3)nc(N3CCN(Cc4ccccc4)CC3)n2)cc1
MIC [1]: inactive | MIC (Plasmodium falciparum): 2 µg/mL (≈ 4.58 µM)

COc1ccc(-c2cc(-c3ccc(O)cc3)nc(N3CCCC3)n2)cc1OC
MIC [2]: 25 µg/mL (≈ 66.2 µM) | MIC (Plasmodium falciparum): 1 µg/mL (≈ 2.65 µM)

COc1ccc(-c2cc(-c3ccc(O)cc3)nc(N3CCCCC3)n2)cc1
MIC [1]: inactive | MIC (Plasmodium falciparum): 0.5 µg/mL (≈ 1.38 µM)

Oc1ccc(-c2cc(-c3ccccc3)nc(N3CCCC3)n2)cc1
MIC [2]: 25 µg/mL (≈ 78.8 µM) | MIC (Plasmodium falciparum): 2 µg/mL (≈ 6.3 µM)

Oc1ccc(-c2cc(-c3ccccc3)nc(N3CCCCC3)n2)cc1
MIC [2]: 25 µg/mL (≈ 75.4 µM) | MIC (Plasmodium falciparum): 2 µg/mL (≈ 6.03 µM)

COc1ccc(-c2cc(-c3ccc(O)cc3)nc(N3CCN(C)CC3)n2)cc1
MIC [2]: 25 µg/mL (≈ 66.4 µM) | MIC (Plasmodium falciparum): 0.5 µg/mL (≈ 1.33 µM)

CN1CCN(c2nc(-c3ccccc3)cc(-c3ccc(O)cc3)n2)CC1
MIC [2]: 25 µg/mL (≈ 72.2 µM) | MIC (Plasmodium falciparum): 0.5 µg/mL (≈ 1.44 µM)
